# Experimental data as given in patent publication US6566397B2, “Acyclic isoprenoid ether derivatives as chemotherapeutics” (Wisconsin Alumni Research Foundation, priority 2000, dated 2003).
# Read-outs that look alike come from different tables or passages of the source.
# Assays:
# [1] = Screening of acyclic isoprenoid esters for tumor-suppressive activity in vitro; type: cell-based
# Source text: (§1) We synthesized and tested a series of esters formed between acyclic isoprenoid alcohols (geraniol, farnesol, nerol, citronellol) and diverse acids (proprionate, isobutyrate, formate, butyrate, caprylate, isovalerate, benzoate, tiglate, anthranilate). […] See Mo, et al. Cancer Letters 157:145-153, 2000 (incorporated by reference).
# implanted B16 melanomas [2] = test: Growth of implanted B16 melanomas, agent in diet; type: in vivo
# Source text: as §1
# We note that the farnesyl moiety of the test agent comprised trans, trans and cis, trans isomers. […] The prospect of a chemotherapeutic application of […] is dimmed by findings that its very potent tumor-suppressive action is markedly attenuated by […], an essential dietary constituent (Qureshi, A., et al., J. Nutr. 126:389-394, 1996).
# [3] = test system: Murine B16 F10 melanoma cells; test: Growth of murine B16 F10 melanoma cells in monolayer culture, viable cell count by hemocytometer, photomicrographs; type: cell-based; details: for IC50: read-out: IC50, inhibition of net increase in cell count; for apoptosis: 5 μmol/L, B16 melanoma cells, photomicrographs
# Procedure: Murine B16 F10 melanoma cells (He, L., et al., supra, 1997) were grown in monolayer culture (35×10 mm tissue culture dishes) in 3 ml RPMI 1640 medium (Sigma Biosciences, St. Louis, Mo.) supplemented with 10% fetal bovine serum (FBS, Sigma Biosciences) and 2% penicillin/streptomycin (Penicillin-Streptomycin Liquid, 1×10^7 units penicilin and 1×10^7 μg streptomycin/L of 0.85% saline, GIBCO BRL, Grand Island, N.Y.). Cultures, seeded with 3.3×10^4 cells/mL, were incubated for 24 hours at 37° C. in a humidified atmosphere of 5% CO2. The medium was decanted and replaced with fresh medium containing the test agents and incubations were continued for 48 hours. M363 and M364 were dissolved in ethanol, and lovastatin (Mevinolin, Sigma) in chloroform. […] The medium and detached (apoptotic) cells were decanted, the monolayer was washed twice with Hanks' Balanced Salt Solution (HBSS, Sigma Biosciences) and then incubated with a trypsin-EDTA solution (Sigma Biosciences) at 37° C. for 2 minutes. Trypsin was inactivated by suspending the cells in medium containing 10% FBS. The trypsinized cells were harvested by centrifugation (250×g) and re-suspended in HBSS. Viable cells, cells that excluded 0.4% trypan blue (GIBCO BRL), were counted with a hemocytometer; 0-time (24-h) cell counts were deducted from final cell counts to provide an estimate of the net increase in cell number.
# Photomicrographs (100×, 200× and 400×) of representative fields of cultures of B16 melanoma cells were made with a Labopot-2 microscope (Nikon, Japan) equipped with a SenSys digital camera (Photometrics Tucson, Ariz.) and image-acquisition software (MetaMorph Imaging Systems, Universal Imaging Corporation, West Chester, Pa.).
# (§2) The IC50 value represents the concentration of an isoprenoid required to inhibit the net increase in cell count by 50% at a time point within the linear growth period plotted for control cells. We determined the IC50 value by plotting cell number against isoprenoid concentration.
# [4] = test system: Human HL-60 acute promyelocytic leukemia cells; test: Growth of human HL-60 leukemia cells in suspension culture, viable cell count by hemocytometer; type: cell-based; details: human HL-60 promyelocytic leukemia cells, 24 hours; read-out: IC50, inhibition of net increase in cell count
# Procedure: Human HL-60 acute promyelocytic leukemia cells (CCL-240, ATCC) were grown in suspension culture (25 cm^2 flasks) in 8 mL RPMI 1640 medium with 20% FBS and 2% penicillin/streptomycin. Cultures, seeded with 1.25×10^8 cells/L, were incubated with test agents for 24 hours at 37° C. in a humidified atmosphere of 5% CO2. The cells were then collected by centrifugation (250×g) and re-suspended in HBSS. Viable cells, cells that excluded 0.4% trypan blue, were counted with a hemocytometer; 0-time (seeding) cell counts were deducted from final cell counts to provide an estimate of the net increase in cell number.
# as §2
# [5] = test system: murine B16 melanoma cells
# [6] = test system: pancreatic tumors implanted in Syrian Golden hamsters; details: 90 mmol/kg diet; cited from earlier work
# [7] = test system: Murine B16(F10) melanoma cells; test: CellTiter 96 Aqueous One Solution Cell Proliferation Assay; type: cell-based; details: 40 hour growth of B16 melanoma cells, 1000 cells/well; read-out: IC50, net absorbance at 490 nm
# Procedure: Murine B16(F10) melanoma cells were grown in monolayer culture (96-well tissue culture plate, Fisher Scientific) in 0.1 mL of RPMI 1640 medium (Sigma) supplemented with 10% fetal bovine serum (Sigma) and 80 mg/L of gentamycin (Sigma). Cultures were seeded in triplicate (0 to 2450 cells/well with an increment of 350 cells) and incubated for 24 hours or 64 hours at 37° C. in a humidified atmosphere of 5% CO2. At 24 hours the medium was decanted from each well and replaced with fresh medium. Cell populations of all wells were determined at either 24 hours (0 time, 3 wells) or 64 hours (40 hours, all other wells) by adding 20 μl of CellTiter 96® Aqueous One Solution (Promega, Madison, Wis.) to each well; the plate was held in dart at 37° C. for 2 hours and then read at 490 nm with a SPECTRAmax® 190 multi-plate reader with SOFTmax® PRO (Molecular Devices, Sunnyvale, Calif.). The net absorbance, the difference between the 0 time and 40 hours values, plotted on cell inoculation density is linear to 2000 cells/well (FIG. 6). We then applied this optical method to the estimation of the IC50 for M364.
# Plates seeded with 1000 cells/well, the midpoint of cell inoculation density (FIG. 6), were cultured as described above. The medium added at 24 hours (0 time) to experimental wells contained 0-10 μmol/L M364 ([4-(3,7,11-trimethyl-2,6,10-dodecatrienyloxy]-phenyl acetate).
# [8] = M364 dietary toxicity study in mice; type: in vivo, C57BL6 female mice
# Procedure: M364 toxicity and efficacy studies are in progress. Weanling C57BL6 female mice (Harlan Sprague Dawley, Madison, Wis.) are housed in groups of five to six on Cellu-Dri bedding (Waldschmidt & Sons, Inc., Madison, Wis.) in stainless steel cages and maintained at 25° C. with a 12-hour light:dark cycle. Three groups of mice (11/group) are being fed AIN-93G diet supplemented with 0 (A, control), 1 (B) and 10 (C) mmol M364/kg diet. Food intakes for mice are recorded daily and mice are weighed on alternate days. Results to date are mixed. […] As a consequence, the body weight of these mice decreased from 13.6 to 11.7 g; on removing the agent (M364) from the diet the mice rapidly regained body weight.
# implanted B16 melanomas [9] = details: cited from earlier work
# [10] = murine melanoma B16 cells, 48 hours, hemocytometer
smiles,measurement,setting,value
CC(C)=CCC/C(C)=C/COC(=O)c1ccccc1N [geranyl anthranilate],tumor-suppressive activity in vitro,[1],significant tumor-suppressive activity
CC(C)=CCCC(C)=CCCC(C)=CCOC(=O)c1ccccc1 [farnesyl benzoate],tumor-suppressive activity in vitro,[1],significant tumor-suppressive activity
C/C=C(\C)C(=O)OCC=C(C)CCC=C(C)CCC=C(C)C [farnesyl tiglate],tumor-suppressive activity in vitro,[1],significant tumor-suppressive activity
CC(C)=CCCC(C)=CCCC(C)=CCOC(=O)c1ccccc1N [farnesyl anthranilate],growth of implanted B16 melanomas,implanted B16 melanomas [2]; 1.5 mmol/kg diet,substantially suppressed the growth
same,effect of dietary α-tocopherol on the agent's action,implanted B16 melanomas [2]; dietary α-tocopherol,did not compromise
same,morphological changes of cells,"[3]; 100 μmol/L, B16 cells, 400× photomicrograph FIG. 4F",morphological changes similar to those attained with 10 μmol M364
same,IC50,"[3]; Mus musculus, 48 h",45 ± 6 µM
same,tumor-suppressive activity in vitro,[1],significant tumor-suppressive activity
same,IC50,[4],80 ± 10 µM
CC[C@H](C)C(=O)O[C@H]1C[C@@H](C)C=C2C=C[C@H](C)[C@H](CC[C@@H]3C[C@@H](O)CC(=O)O3)[C@H]21 [lovastatin],increase in portion of cells in G1,[5]; lovastatin 0.75 μmol/L,33%
same,suppression of cell growth,"[3]; lovastatin 0.75 μmol/L, B16 cells",25%
CC(C)=CCCC(C)=CCCC(C)=CCO [farnesol],growth of implanted pancreatic tumors,[6],suppressed the growth
CC(C)=CCC/C(C)=C/COC(=O)c1ccccc1 [geranyl benzoate],tumor-suppressive activity in vitro,[1],significant tumor-suppressive activity
"CC(=O)Oc1ccc(OCC=C(C)CCC=C(C)CCC=C(C)C)cc1 [M364, [4-(3,7,11-trimethyl-2,6,10-dodecatrienyloxy]-phenyl acetate]",increase in proportion of cells in G1,[5]; M364 1 μmol/L,33%
same,IC50,[7],2200 nM
same,apoptosis,[3],initiated apoptosis
same,suppression of cell growth,"[3]; M364 1 μmol/L, B16 cells",45%
same,IC50,[3]; [10],2 ± 0.6 µM
same,body weight and general appearance,[8]; 1 mmol M364/kg diet,match the controls
same,general condition of mice,[8]; 10 mmol M364/kg diet,remained healthy and active
same,food intake,"[8]; 10 mmol M364/kg diet, 6 day exposure",decreased
same,body weight after exposure to diet,"[8]; 10 mmol M364/kg diet, 6 day exposure, decreased from 13.6 g, regained on removing agent",11.7 g
same,IC50,[4],4.9 ± 3.7 µM
"CC(=O)Oc1ccc(OCC=C(C)CCC=C(C)C)cc1 [M363, [4-(3,7-dimethyl-2,6-octadienyloxy]-phenyl acetate]",apoptosis,[3],initiated apoptosis
same,IC50,[3]; [10],5.1 ± 0.8 µM
same,IC50,[4],58.6 ± 2.3 µM
C/C=C(\C)C(=O)OC/C=C(\C)CCC=C(C)C [geranyl tiglate],tumor-suppressive activity in vitro,[1],significant tumor-suppressive activity
CC(C)=CCC/C(C)=C/CC/C(C)=C/CC[C@]1(C)CCc2cc(O)c(C)c(C)c2O1 [γ-tocotrienol],growth of implanted B16 melanomas,implanted B16 melanomas [9]; 0.116 mmol/kg diet,suppressed the growth
same,efficacy in suppressing growth of implanted melanomas relative to farnesol,implanted B16 melanomas [9]; <1 mmol/kg diet,~100 ×
